Consider one molecule from article PMC3922537 (Organic & biomolecular chemistry, 2013).

This assay relates to CYP76AH4. Kind of assay: in vitro hydroxylation assay of recombinant enzyme, GC-MS. Format: cell-based, Salvia rosmarinus. To be noted: C12-hydroxylation to ferruginol; enzyme preparation not described in main text.

Regarding `CC(C)c1ccc2c(c1)CC[C@H]1C(C)(C)CCC[C@]21C` [compound 3, abietatriene], the Km (in general, the concentration of substrate that gives half-maximal velocity) turned out to be 25 ± 6 µM.
